Laboratory results as given in PMC10304470, “Characterization of the Antimicrobial Activities of Trichoplusia ni Cecropin A as a High-Potency Therapeutic against Colistin-Resistant Escherichia coli” (Pharmaceutics, 2023).
Like-named read-outs stand apart in the source and are kept apart here. Ends that are not written are not given here. Peptide text beside a SMILES is read from it.

Experiments:
E. coli (KCTC 1682) = format: cell-based, Escherichia coli
Source text: (§1) E. coli (KCTC 1682) was obtained from the Korean Collection for Type Cultures (KCTC, Jeongeup, Republic of Korea), and Acinetobacter baumannii (KCCM 40203) and Pseudomonas aeruginosa (KCCM 11328) from the Korea Culture Center of Microorganisms (KCCM, Seoul, Republic of Korea). Klebsiella pneumoniae (NCCP 16054), colistin-resistant E. coli NMA 1557 (ColREC 1557), NMS 12 (ColREC 12), and colistin-resistant A. baumannii NMS 1915 (ColRAB 1915), as well as colistin-resistant K. pneumoniae NMS 139 (ColRKP 139), were obtained from the National Institute of Health Multidrug Resistant Bacteria Specialized Pathogen Resources Bank (Osong, Republic of Korea).
(§2) The antibacterial abilities of the peptides (T. ni cecropin, cecropin A, polymyxin B, colistin, and melittin) were determined using the broth dilution method as previously reported. The peptides dissolved at 10 mg/mL in deionized water were serially diluted from 64 μM to 0.5 μM in 96-well plates using Mueller–Hinton (MH) broth, and bacteria cultured to exponential growth were added at 2 × 10^5 cells/mL. The group of bacteria that grew untreated in the broth was set as the positive control, and the uninoculated broth as the negative control. Dissolved peptides are colorless and equal to the OD value of the medium only. After 16 h incubation at 37 °C, the absorbance at 600 nm was measured using a SpectraMAX microplate reader (Molecular Devices, San Jose, CA, USA).

[1] = test system: colistin-resistant E. coli NMA 1557 (ColREC 1557); format: cell-based, Escherichia coli; settings: MH broth, 2 × 10^5 cells/mL, 16 h, 37 °C, OD600, >95% killing
Source text: as §1, §2

[2] = test system: colistin-resistant E. coli NMS 12 (ColREC 12); format: cell-based, Escherichia coli; settings: MH broth, 2 × 10^5 cells/mL, 16 h, 37 °C, OD600, >95% killing
Source text: as §1, §2

[3] = test system: Acinetobacter baumannii (KCCM 40203); format: cell-based
Source text: as §1, §2

[4] = test system: Klebsiella pneumoniae (NCCP 16054); format: cell-based
Source text: as §1, §2

[5] = test system: Pseudomonas aeruginosa (KCCM 11328); format: cell-based
Source text: as §1, §2

[6] = test system: colistin-resistant A. baumannii NMS 1915 (ColRAB 1915); settings: MH broth, 2 × 10^5 cells/mL, 16 h, 37 °C, OD600, >95% killing
Source text: as §1
as §2, with “The” for “The antibacterial abilities of the peptides (T. ni cecropin, cecropin A, polymyxin B, colistin, and melittin) were determined using the broth dilution method as previously reported. The”

[7] = test system: colistin-resistant K. pneumoniae NMS 139 (ColRKP 139); format: cell-based, Klebsiella pneumoniae; settings: MH broth, 2 × 10^5 cells/mL, 16 h, 37 °C, OD600, >95% killing
Source text: as §1, §2

all bacterial strains = assay: Average MIC over all strains and relative selective index; format: cell-based; settings: 8 strains; MIC above 64 μM taken as 128 μM
Protocol: as §2

L-929 cells = assay: Cytotoxicity, WST-8; format: cell-based, mouse; settings: 24 h; for viability / survival rate: up to 100 μM peptide
Protocol: (§3) Murine macrophage RAW 264.7 cells and mouse fibroblast L-929 cells were used for research and were purchased from the Korea Cell Line Bank (Seoul, Republic of Korea). Both cells were cultured in Dulbecco’s Modified Eagle’s Medium (DMEM; Welgene, Gyeongsan, Republic of Korea) supplemented with 10% fetal bovine serum and 1% antibiotics (penicillin/streptomycin) at 37 °C in the presence of 5% CO2. To measure the cytotoxicities of peptides against RAW 264.7 cells and L-929 cells, both cell lines were seeded at a density of 1 × 10^5 cells/well in a 96-well plate, to which each concentration of peptide solution (from 1.6 μM to 100 μM) was added, followed by incubation for 22 h. Subsequently, WST-8 (Biomax Co., Ltd., Guri, Republic of Korea) was added at 10% volume of the final solution, and the mixture was incubated for an additional 2 h. Absorbance was measured at 450 nm. Percentages were calculated based on untreated cells.

RAW 264.7 cells = assay: Cytotoxicity, WST-8; format: cell-based, mouse; settings: 100 μM peptide, 24 h
Protocol: as §3

[8] = test system: sheep red blood cells (sRBCs); assay: Hemolysis; format: cell-based; settings: 1 h, 37 °C
Protocol: Sheep red blood cells (sRBCs; KisanBio, Seoul, Republic of Korea) were added to three volumes of phosphate-buffered saline (PBS; 35 mM phosphate buffer containing 150 mM NaCl, pH 7.4) and centrifuged five times at 4 °C, 1000× g for 5 min, followed by a final suspension in PBS at 4% (w/v). Peptides serially diluted from 100 μM to 3.1 μM in PBS at 100 μL in a 96-well plate were prepared, and an equal volume of blood solution was added. After incubation at 37 °C for 1 h, the plates were centrifuged for 5 min at 4 °C, 1000× g. The absorbance of the supernatant was measured at 405 nm. The 100% hemolysis control was 0.1% Triton-X 100 added to the blood solution; the negative control was blood solution added to PBS.

ColREC 1557 = format: cell-based, Escherichia coli; settings: 16 h, crystal violet
Protocol: (§4) To quantify the biofilm inhibitory activity of each peptide, ColREC 1557 and ColREC 12 were cultured in Luria–Bertani (LB) broth overnight and then sub-cultured in MH broth. Different concentrations of peptide (from 1 μM to 64 μM) were prepared in 96-well plates using MH broth (containing 0.2% glucose) and incubated with bacteria (2 × 10^5 cells/mL) at 37 °C for 16 h. After incubation, the culture medium was removed and methanol was added as a fixative for 15 min. The completely dried plates were stained for 2 h by adding 100 μL of staining solution (0.1% (w/v) crystal violet in 0.25% (v/v) acetic acid). The residual staining solution was gently rinsed off three times using distilled water. Subsequently, 90% ethanol was used to dissolve the dye, and absorbance was measured at 600 nm. The untreated bacterial group was used as a control to compare biofilm production rates.

ColREC 12 = assay: Biofilm inhibition assay, crystal violet; format: cell-based, Escherichia coli; settings: ColREC 12, 2 μM peptide, 16 h
Protocol: as §4

TLR4/MD-2 complex = biological target: T1, TLR4/MD-2 complex (Homo sapiens, UniProt O00206+Q9Y6Y9); assay: Surface plasmon resonance (SPR); format: binding; settings: Biacore T200, CM5 chip, PBS with 0.05% Tween 20, 25 °C, read-out: equilibrium constant (KD) for TLR4/MD2
T1 construct: purchased R&D Systems
T1 sequence (O00206 24-631 limits assumed): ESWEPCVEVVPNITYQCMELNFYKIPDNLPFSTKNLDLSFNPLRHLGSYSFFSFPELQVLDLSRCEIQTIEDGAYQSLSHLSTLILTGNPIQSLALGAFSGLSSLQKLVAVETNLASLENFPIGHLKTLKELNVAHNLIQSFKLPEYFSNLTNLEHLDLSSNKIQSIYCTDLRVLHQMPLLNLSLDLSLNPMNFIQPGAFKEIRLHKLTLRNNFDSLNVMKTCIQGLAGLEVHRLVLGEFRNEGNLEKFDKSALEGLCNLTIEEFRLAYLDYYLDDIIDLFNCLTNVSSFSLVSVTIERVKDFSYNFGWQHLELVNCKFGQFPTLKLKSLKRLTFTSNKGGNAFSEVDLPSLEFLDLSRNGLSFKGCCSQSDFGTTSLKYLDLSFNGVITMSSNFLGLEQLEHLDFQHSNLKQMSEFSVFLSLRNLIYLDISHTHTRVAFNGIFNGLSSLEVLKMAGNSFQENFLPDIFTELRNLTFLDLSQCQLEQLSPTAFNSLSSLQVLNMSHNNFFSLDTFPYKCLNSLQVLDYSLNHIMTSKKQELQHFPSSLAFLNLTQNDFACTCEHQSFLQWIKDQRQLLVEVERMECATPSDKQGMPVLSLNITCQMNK
T1 sequence (Q9Y6Y9 17-160 limits assumed): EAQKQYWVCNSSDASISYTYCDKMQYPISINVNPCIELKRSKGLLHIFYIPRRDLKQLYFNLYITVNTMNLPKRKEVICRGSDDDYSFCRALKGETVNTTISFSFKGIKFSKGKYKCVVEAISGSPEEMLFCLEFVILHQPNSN
Protocol: Binding affinity measurements of the peptide to TLR4/myeloid differentiation factor 2 (MD-2) protein (R&D Systems) were performed on a Biacore T200 instrument (GE Healthcare, Danderyd, Sweden). The receptor was covalently bound to the carboxymethylated sensor chip surface using standard NHS/EDC coupling procedures. The sensor chip (Sensor Chip CM5; Cytiva, MA, USA) was loaded with 30 μg/mL of protein in sodium acetate buffer (pH 4.0) to a resonance value of 2500. Measurements were performed at a flow rate of 30 μL/min with increasing concentrations of peptide dissolved in PBS containing 0.05% Tween 20 at 25 °C. Analysis was performed using Biacore T200 Evaluation Software 3.0 (GE Healthcare, Chicago, IL, USA).

[9] = Limulus amebocyte lysate (LAL) assay, LPS neutralization; format: biochemical; settings: LPS 2 ng/mL, 10 min, 37 °C
Protocol: To investigate the LPS-neutralizing activity, LAL assays were performed according to the protocol provided in the LAL assay kit (ToxinSensor™ Chromogenic LAL Endotoxin Assay Kit; GenScript, Piscataway, NJ, USA). Briefly, peptides diluted from 50 μM to 1.6 μM in LAL reagent water were incubated with LPS (2 ng/mL) for 10 min at 37 °C. LAL enzyme was then added and incubated under the same conditions. Substrate was added to react, after which three kinds of stop solutions were added in order. Absorbance (545 nm) was measured and quantified using an endotoxin standard graph.

[10] = E. coli, MH broth, 2 × 10^5 cells/mL, 16 h, 37 °C, OD600, >95% killing
[11] = A. baumannii, MH broth, 2 × 10^5 cells/mL, 16 h, 37 °C, OD600, >95% killing
[12] = K. pneumoniae, MH broth, 2 × 10^5 cells/mL, 16 h, 37 °C, OD600, >95% killing
[13] = P. aeruginosa, MH broth, 2 × 10^5 cells/mL, 16 h, 37 °C, OD600, >95% killing

Molecule | Minimal Inhibitory Concentration [1] [µM] | Minimal Inhibitory Concentration [2] [µM] | Minimal Inhibitory Concentration [6] [µM] | Minimal Inhibitory Concentration [7] [µM] | GM (geometric mean, average MIC value of all bacterial strains) (all bacterial strains) [µM] | viability / survival rate (L-929 cells) [%] | cell viability (RAW 264.7 cells) [%] | Minimal Inhibitory Concentration (E. coli (KCTC 1682); [10]) [µM] | Minimal Inhibitory Concentration [3, 11] [µM] | Minimal Inhibitory Concentration [4, 12] [µM] | Minimal Inhibitory Concentration [5, 13] [µM] | inhibition of biofilm formation (ColREC 12) [%] | also measured
CC[C@H](C)CCCCC(=O)N[C@@H](CCN)C(=O)N[C@H](C(=O)N[C@@H](CCN)C(=O)N[C@H]1CCNC(=O)[C@H]([C@@H](C)O)NC(=O)[C@H](CCN)NC(=O)[C@H](CCN)NC(=O)[C@H](CC(C)C)NC(=O)[C@@H](Cc2ccccc2)NC(=O)[C@H](CCN)NC1=O)[C@@H](C)O [polymyxin B] (HELM PEPTIDE1{[CC[C@H](C)CCCCC(=O)[*:2]].[Dab].T.[Dab].[Dab].[Dab].[dF].L.[Dab].[Dab].T}$PEPTIDE1,PEPTIDE1,5:R3-11:R2$$$V2.0; N-terminus assumed; bridges inferred) | 8 | 4 | 64 | 64 | 17.88 | 96.0 | 31.3 |  |  |  |  |  | Minimal Inhibitory Concentration (E. coli (KCTC 1682); KCTC 1682, 16 h): 0.25 µM; Minimal Inhibitory Concentration ([3]; KCCM 40203, 16 h): 0.5 µM; Minimal Inhibitory Concentration ([4]; NCCP 16054, 16 h): 0.25 µM; Minimal Inhibitory Concentration ([5]; KCCM 11328, 16 h): 2 µM
RWKFFKKIEKVGQNIRDGIIKAGPAVAVVGQAASITGK-NH2 [T. ni cecropin] | 1 | 1 | 1 | 2 | 1.63 | 95 | 93.6 | 2 | 1 | 1 | 4 | 82.5 | hemolytic activity ([8]; 100 μM peptide): no hemolytic activity; inhibition of biofilm formation (ColREC 1557; ColREC 1557, 2 μM peptide): 75.3%; inhibition of biofilm formation (ColREC 1557; ColREC 1557, 4 μM peptide): over 90%; Kd (TLR4/MD-2 complex): 558 nM
KWKLFKKIEKVGQNIRDGIIKAGPAVAVVGQATQIAK-NH2 [cecropin A] | 1 | 1 | 1 | 2 | 2.25 |  |  | 2 | 2 | 1 | 8 | 80.8 | 
CC[C@H](C)[C@H](NC(=O)CN)C(=O)NCC(=O)N[C@@H](C)C(=O)N[C@H](C(=O)N[C@@H](CC(C)C)C(=O)N[C@@H](CCCCN)C(=O)N[C@H](C(=O)N[C@@H](CC(C)C)C(=O)N[C@H](C(=O)N[C@H](C(=O)NCC(=O)N[C@@H](CC(C)C)C(=O)N1CCC[C@H]1C(=O)N[C@@H](C)C(=O)N[C@@H](CC(C)C)C(=O)N[C@H](C(=O)N[C@@H](CO)C(=O)N[C@@H](Cc1c[nH]c2ccccc12)C(=O)N[C@H](C(=O)N[C@@H](CCCCN)C(=O)N[C@@H](CCCNC(=N)N)C(=O)N[C@@H](CCCCN)C(=O)N[C@@H](CCCNC(=N)N)C(=O)N[C@@H](CCC(N)=O)C(=O)N[C@@H](CCC(N)=O)C(N)=O)[C@@H](C)CC)[C@@H](C)CC)[C@@H](C)O)[C@@H](C)O)C(C)C)C(C)C [melittin] | 2 | 2 | 2 | 32 |  |  |  |  | 4 | 32 |  |  | hemolytic activity ([8]; 3.1 μM peptide): 8.2%; hemolytic activity ([8]; 12.5 μM peptide): 84.3%; survival rate (L-929 cells; 1.6 μM peptide): below 5%
LL-37 |  |  |  |  |  |  |  |  |  |  |  |  | peptide concentration nearly neutralizing 10 enzyme units (EU) of LPS [9]: 12.5 µM
